Data reported in patent US10172868B2, “Substituted quinazolines for inhibiting kinase activity” (NeuPharma, Inc., priority 2013, dated 2019).
pIC50: −log10 of the molar value.

Experiments:
EGFR (ErbB1) L858R = EGFR (ErbB1) L858R (Homo sapiens (Human), UniProt P00533, L858R); assay: Z'-LYTE kinase inhibition assay, EGFR L858R; format: biochemical; settings: read-out: % inhibition against EGFR L858R (Compound at 1 μM)
Description: Inhibitory activities of compounds against BTK, EGFR and EGFR mutants (EGFR L858R, EGFR T790M, EGFR L858R/T790M), FGFR1, FGFR2, JAK2, JAK3 and KDR were measured by Invitrogen using Z'-LYTE® Method as briefly described in the following. Test Compounds are screened in 1% DMSO (final) in the well. For 10 point titrations, 3-fold serial dilutions are conducted from the starting concentration. All ATP Solutions are diluted to a 4× working concentration in Kinase Buffer (50 mM HEPES pH 7.5, 0.01% BRIJ-35, 10 mM MgCl2, 1 mM EGTA). Peptide/Kinase Mixtures are diluted to a 2× working concentration in the appropriate Kinase Buffers as described below. (ii) Peptide/Kinase Mixtures for Measurement of EGFR (ErbB1) L858R: The 2×EGFR (ErbB1) L858R/[…] mixture is prepared in 50 mM HEPES pH 7.5, 0.01% BRIJ-35, 10 mM MgCl2, 4 mM MnCl2, 1 mM EGTA, 2 mM DTT. The final 10 μL Kinase Reaction consists of 0.2-1.68 ng EGFR (ErbB1) L858R and 2 μM […] in 50 mM HEPES pH 7.5. 0.01% BRIJ-35, 10 mM MgCl2. 2 mM MnCl2, 1 mM EGTA, 1 mM DTT. After the 1 hour Kinase Reaction incubation, 5 μL of a 1:64 dilution of Development Reagent B is added. Reaction starts by 30-second shaking of mixture consisting of 2.5 μL 4× test compound, […] 2× kinase reaction mixture and 2.5 μL 4×ATP Solution on Bar-coded Corning, low volume NBS, black 384-well plate (Corning Cat. #3676). Then the mixture is incubated for 60-minute at room temperature for the kinase reaction, followed by addition of 5 μL of a 1:1024 dilution of development reagent A and 30-second plate shake. The mixture is then incubated for another 60-minute at room temperature for development reaction. Finally fluorescence is read by plate reader.

BTK = BTK (Homo sapiens (Human), UniProt Q06187); assay: Z'-LYTE kinase inhibition assay, BTK; format: biochemical; settings: for inhibition at 0.041 µM: compound at 0.041 μM, read-out: % inhibition against BTK; for pIC50: read-out: IC50 against BTK
Outline: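 Z'-LYTE FRET assay with Tyr 01 peptide in 50 mM HEPES pH 7.5, 10 mM MgCl2, 1 mM EGTA, 0.01% BRIJ-35. Compounds in 1% DMSO were tested as 10-point, 3-fold titrations.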

JAK2 = JAK2 (Homo sapiens (Human), UniProt O60674); assay: Z'-LYTE kinase inhibition assay, JAK2; format: biochemical; settings: compound at 0.041 μM; read-out: % inhibition against JAK2
Description: (§1) Inhibitory activities of compounds against BTK, EGFR and EGFR mutants (EGFR L858R, EGFR T790M, EGFR L858R/T790M), FGFR1, FGFR2, JAK2, JAK3 and KDR were measured by Invitrogen using Z'-LYTE® Method as briefly described in the following.
(§2) Test Compounds are screened in 1% DMSO (final) in the well. For 10 point titrations, 3-fold serial dilutions are conducted from the starting concentration. All ATP Solutions are diluted to a 4× working concentration in Kinase Buffer (50 mM HEPES pH 7.5, 0.01% BRIJ-35, 10 mM MgCl2, 1 mM EGTA). Peptide/Kinase Mixtures are diluted to a 2× working concentration in the appropriate Kinase Buffers as described below.
(v) Peptide/Kinase Mixtures for Measurement of JAK2:
The 2×JAK2/Tyr 06 mixture is prepared in 50 mM HEPES pH 7.5, 0.01% BRIJ-35, 10 mM MgCl2, 1 mM EGTA. The final 10 μL Kinase Reaction consists of 0.06-0.81 ng JAK2 and 2 μM Tyr 06 in 50 mM HEPES pH 7.5, 0.01% BRIJ-35, 10 mM MgCl2, 1 mM EGTA. After the 1 hour Kinase Reaction incubation, 5 μL of a 1:64 dilution of Development Reagent A is added.
(§3) Reaction starts by 30-second shaking of mixture consisting of 2.5 μL 4× test compound, […] 2× kinase reaction mixture and 2.5 μL 4×ATP Solution on Bar-coded Corning, low volume NBS, black 384-well plate (Corning Cat. #3676). Then the mixture is incubated for 60-minute at room temperature for the kinase reaction, followed by addition of 5 μL of a 1:1024 dilution of development reagent A and 30-second plate shake. The mixture is then incubated for another 60-minute at room temperature for development reaction. Finally fluorescence is read by plate reader.

A431 cells = assay: cells; settings: Homo sapiens, A-431, 72 h, read-out: IC50 in A431 cells
FGFR1 = FGFR1 (Homo sapiens (Human), UniProt P11362); assay: Z'-LYTE kinase inhibition assay, FGFR1; format: biochemical; settings: for inhibition at 0.041 µM: compound at 0.041 μM, read-out: % inhibition against FGFR1; for pIC50: read-out: IC50 against FGFR1
Description: as §1, §2
(v) Peptide/Kinase Mixtures for Measurement of FGFR1:
The 2×FGFR1/Tyr 04 mixture is prepared in 50 mM HEPES pH 7.5, 0.01% BRIJ-35, 10 mM MgCl2, 4 mM MnCl2, 1 mM EGTA, 2 mM DTT. The final 10 μL Kinase Reaction consists of 0.41-3.5 ng FGFR1 and 2 μM Tyr 04 in 50 mM HEPES pH 7.5, 0.01% BRIJ-35, 10 mM MgCl2, 2 mM MnCl2, 1 mM EGTA, 1 mM DTT. After the 1 hour Kinase Reaction incubation, 5 μL of a 1:64 dilution of Development Reagent B is added.
as §3
To determine IC50 of a compound against EGFR, EGFR mutant and other kinases, a series of concentrations of the compound were tested for the inhibition. […] The scale utilized in Table 4 is as follows: +++ less than 100 nM, ++ 100-500 nM and + greater than 500 nM.

H1299 cells = assay: Inhibition of cancer cell growth, MTT assay, H1299; settings: Homo sapiens, NCI-H1299, 72 h, read-out: IC50 in H1299 cells
Description: Inhibition of cell growth by compounds was measured using MTT assay (Mosmann, T., Journal of Immunological Methods, 1983, 65, 55-63). Tumor cell lines were purchased from ATCC (American Type Culture Collection, Manassas, Va.). All cell lines were maintained in RPMI 1640 (Hyclone) supplemented with 10% fetal bovine serum (FBS, Hyclone), glutamine (2 mM, Hyclone), and antibiotics (penicillin 100 U/mL and streptomycin 50 μg/mL) at 37° C. in a humidified atmosphere of 5% CO2 in air. Taxol (as a positive control. Sigma) and compounds were dissolved in DMSO (Sigma), and the final concentration of DMSO in the medium was 1%. Tumor cells were plated in 96-well plates at densities of about 4000 cells/well of a 96-well plate and allowed to adhere/grow for 24 h. They were then treated with various concentrations of drug for 72 h, 3-(4,5-Dimethylthiazol-2-yl)-2,5-diphenyltetrazolium bromide (MTT, Sigma) was used to determine the number of viable cells at the time of compound addition and the number of cells remaining after 72 h compound exposure. The number of cells remaining after 72 h was compared to the number of viable cells at the time of compound addition by measuring the absorbance at 570 nm, allowing for the calculation of growth inhibition.
All concentrations of compounds were tested in triplicate and controls were averaged over 4 wells. IC50 was calculated by plotting the concentration of compound vs the percentage of inhibition in treated wells using GraphPad Prism 5.

Sequence of FGFR1 (P11362 22-822): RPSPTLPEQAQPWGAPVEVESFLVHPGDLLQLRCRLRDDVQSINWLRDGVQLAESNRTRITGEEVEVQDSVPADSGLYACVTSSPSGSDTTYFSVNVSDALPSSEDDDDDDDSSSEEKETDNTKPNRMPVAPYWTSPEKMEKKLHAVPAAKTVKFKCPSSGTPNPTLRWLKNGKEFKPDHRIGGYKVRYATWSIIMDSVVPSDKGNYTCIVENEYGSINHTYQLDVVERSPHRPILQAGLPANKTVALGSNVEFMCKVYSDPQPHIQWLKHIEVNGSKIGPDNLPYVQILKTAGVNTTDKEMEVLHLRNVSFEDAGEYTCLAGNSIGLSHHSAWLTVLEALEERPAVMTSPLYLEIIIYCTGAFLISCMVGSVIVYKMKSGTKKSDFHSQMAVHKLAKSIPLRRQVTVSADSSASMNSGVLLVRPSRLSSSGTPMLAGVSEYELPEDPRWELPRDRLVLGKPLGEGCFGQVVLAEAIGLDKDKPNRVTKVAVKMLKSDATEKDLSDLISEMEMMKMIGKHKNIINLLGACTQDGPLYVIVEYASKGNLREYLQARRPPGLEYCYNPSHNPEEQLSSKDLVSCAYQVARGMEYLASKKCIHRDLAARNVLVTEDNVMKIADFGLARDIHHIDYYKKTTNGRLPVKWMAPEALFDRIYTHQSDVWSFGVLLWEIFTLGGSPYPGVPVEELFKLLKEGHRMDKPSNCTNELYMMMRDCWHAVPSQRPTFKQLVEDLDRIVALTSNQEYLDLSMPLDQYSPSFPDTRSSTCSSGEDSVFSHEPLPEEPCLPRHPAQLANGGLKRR
Sequence of JAK2 (O60674 whole entry): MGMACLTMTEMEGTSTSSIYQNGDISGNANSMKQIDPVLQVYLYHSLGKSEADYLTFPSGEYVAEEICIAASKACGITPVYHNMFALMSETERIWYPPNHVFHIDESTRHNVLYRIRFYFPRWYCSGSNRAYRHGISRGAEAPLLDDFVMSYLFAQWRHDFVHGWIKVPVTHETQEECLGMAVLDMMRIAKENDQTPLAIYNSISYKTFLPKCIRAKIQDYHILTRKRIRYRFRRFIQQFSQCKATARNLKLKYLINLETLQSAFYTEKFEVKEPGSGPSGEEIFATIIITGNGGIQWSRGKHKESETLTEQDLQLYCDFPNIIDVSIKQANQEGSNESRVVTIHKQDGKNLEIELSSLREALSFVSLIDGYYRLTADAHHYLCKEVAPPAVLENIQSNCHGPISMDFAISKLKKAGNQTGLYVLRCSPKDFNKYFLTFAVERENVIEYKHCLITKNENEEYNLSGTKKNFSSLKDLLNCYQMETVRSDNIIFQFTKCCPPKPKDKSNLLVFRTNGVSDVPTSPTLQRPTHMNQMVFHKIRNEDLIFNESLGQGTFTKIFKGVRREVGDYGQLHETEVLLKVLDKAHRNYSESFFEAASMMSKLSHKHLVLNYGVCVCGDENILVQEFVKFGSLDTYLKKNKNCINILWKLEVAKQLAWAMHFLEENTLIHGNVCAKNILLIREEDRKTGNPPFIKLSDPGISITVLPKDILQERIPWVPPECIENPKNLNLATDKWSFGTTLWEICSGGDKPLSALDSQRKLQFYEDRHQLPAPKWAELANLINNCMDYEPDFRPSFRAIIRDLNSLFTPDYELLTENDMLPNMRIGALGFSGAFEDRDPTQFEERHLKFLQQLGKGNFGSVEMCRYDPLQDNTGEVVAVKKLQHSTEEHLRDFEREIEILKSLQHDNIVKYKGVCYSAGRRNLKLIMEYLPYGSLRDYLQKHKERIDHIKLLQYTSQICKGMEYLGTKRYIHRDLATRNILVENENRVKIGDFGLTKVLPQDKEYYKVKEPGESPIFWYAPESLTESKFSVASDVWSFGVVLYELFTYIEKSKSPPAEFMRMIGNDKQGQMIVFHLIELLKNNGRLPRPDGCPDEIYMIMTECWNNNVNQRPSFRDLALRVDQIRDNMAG
Sequence of EGFR (ErbB1) L858R (P00533 25-1210 L858R): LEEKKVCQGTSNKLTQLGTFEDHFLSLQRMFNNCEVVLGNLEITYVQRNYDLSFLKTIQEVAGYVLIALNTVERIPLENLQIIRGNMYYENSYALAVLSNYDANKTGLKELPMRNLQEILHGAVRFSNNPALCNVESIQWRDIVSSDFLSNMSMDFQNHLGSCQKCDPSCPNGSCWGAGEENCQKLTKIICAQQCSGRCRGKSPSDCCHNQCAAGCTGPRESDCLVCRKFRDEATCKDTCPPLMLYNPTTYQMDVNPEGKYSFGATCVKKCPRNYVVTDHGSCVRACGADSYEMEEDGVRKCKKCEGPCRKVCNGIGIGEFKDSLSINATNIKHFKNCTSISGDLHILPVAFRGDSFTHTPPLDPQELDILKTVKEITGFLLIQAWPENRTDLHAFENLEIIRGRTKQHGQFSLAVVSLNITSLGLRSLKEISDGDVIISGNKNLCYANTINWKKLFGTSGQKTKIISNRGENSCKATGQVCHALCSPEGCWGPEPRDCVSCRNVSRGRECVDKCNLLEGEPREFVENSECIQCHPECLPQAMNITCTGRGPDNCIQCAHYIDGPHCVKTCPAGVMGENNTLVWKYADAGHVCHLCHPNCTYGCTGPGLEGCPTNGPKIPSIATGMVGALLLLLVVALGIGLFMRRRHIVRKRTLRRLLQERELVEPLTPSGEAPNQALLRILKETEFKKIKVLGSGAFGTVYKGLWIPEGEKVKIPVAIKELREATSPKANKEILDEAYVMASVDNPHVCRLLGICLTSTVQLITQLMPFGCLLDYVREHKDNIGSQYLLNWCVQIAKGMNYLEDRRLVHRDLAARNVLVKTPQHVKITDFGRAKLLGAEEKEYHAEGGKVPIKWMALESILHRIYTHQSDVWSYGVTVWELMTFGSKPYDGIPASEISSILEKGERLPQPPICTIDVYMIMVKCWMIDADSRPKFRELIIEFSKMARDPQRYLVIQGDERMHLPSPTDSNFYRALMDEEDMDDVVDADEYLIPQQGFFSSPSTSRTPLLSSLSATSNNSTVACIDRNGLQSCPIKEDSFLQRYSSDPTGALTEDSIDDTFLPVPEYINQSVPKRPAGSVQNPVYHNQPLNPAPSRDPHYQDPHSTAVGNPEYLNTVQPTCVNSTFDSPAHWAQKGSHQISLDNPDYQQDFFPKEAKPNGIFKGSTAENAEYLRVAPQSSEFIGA
Sequence of BTK (Q06187 whole entry): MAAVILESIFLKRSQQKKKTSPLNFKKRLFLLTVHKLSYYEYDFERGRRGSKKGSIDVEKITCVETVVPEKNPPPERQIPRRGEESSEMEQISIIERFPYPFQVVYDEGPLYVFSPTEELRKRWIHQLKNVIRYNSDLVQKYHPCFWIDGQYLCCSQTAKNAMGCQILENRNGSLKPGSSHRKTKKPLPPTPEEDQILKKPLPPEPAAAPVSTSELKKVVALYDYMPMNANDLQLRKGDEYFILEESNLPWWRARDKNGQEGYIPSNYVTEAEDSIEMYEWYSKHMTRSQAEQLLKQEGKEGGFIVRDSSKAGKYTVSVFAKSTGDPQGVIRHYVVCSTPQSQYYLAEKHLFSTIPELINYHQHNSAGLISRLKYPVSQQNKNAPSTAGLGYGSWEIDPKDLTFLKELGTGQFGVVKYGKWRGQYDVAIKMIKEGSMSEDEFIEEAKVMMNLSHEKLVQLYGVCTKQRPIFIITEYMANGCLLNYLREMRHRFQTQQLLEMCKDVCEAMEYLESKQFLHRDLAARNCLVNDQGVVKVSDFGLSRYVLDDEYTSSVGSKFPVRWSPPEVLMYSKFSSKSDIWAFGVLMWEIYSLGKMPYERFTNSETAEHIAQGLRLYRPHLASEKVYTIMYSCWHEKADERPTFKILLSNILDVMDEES

inhibition at 1 µM (EGFR (ErbB1) L858R) [%]	inhibition at 0.041 µM (BTK) [%]	inhibition at 0.041 µM (JAK2) [%]	pIC50 (A431 cells)	inhibition at 0.041 µM (FGFR1) [%]	Structure (SMILES)	pIC50 (H1299 cells)	pIC50 (BTK)	pIC50 (FGFR1)
< 50	< 50	> 50	–	–	Fc1cccc(-c2cccc3cnc(Nc4ccc(N5CCOCC5)cc4)nc23)c1 [Example C009, 8-(3-fluorophenyl)-N-(4-morpholinophenyl)quinazolin-2-amine]	–	–	–
< 50	–	–	< 6.30	–	C=CC(=O)Nc1cccc(-c2cccc3cnc(Nc4ccc(N5CCOCC5)cc4OC)nc23)c1 [Example C002, N-(3-(2-((2-methoxy-4-morpholinophenyl)amino)quinazolin-8-yl)phenyl)acrylamide]	–	–	–
> 50	> 50	> 50	< 6.30	> 50	C=CC(=O)Nc1cccc(-c2cccc3cnc(Nc4ccc(N5CCOCC5)cc4)nc23)c1 [Example C001, N-(3-(2-((4-morpholinophenyl)amino)quinazolin-8-yl)phenyl)acrylamide]	< 6.30	–	–
< 50	–	–	< 6.30	–	Clc1ccccc1-c1cccc2cnc(Nc3ccc(N4CCOCC4)cc3)nc12 [Example C011, 8-(2-chlorophenyl)-N-(4-morpholinophenyl)quinazolin-2-amine]	–	–	–
< 50	< 50	> 50	–	< 50	Clc1cccc(-c2cccc3cnc(Nc4ccc(N5CCOCC5)cc4)nc23)c1 [Example C008, 8-(3-chlorophenyl)-N-(4-morpholinophenyl)quinazolin-2-amine]	–	–	–
< 50	–	–	–	–	Fc1ccc(Cl)cc1-c1cccc2cnc(Nc3ccc(N4CCOCC4)cc3)nc12 [Example C007, 8-(5-chloro-2-fluorophenyl)-N-(4-morpholinophenyl)quinazolin-2-amine]	–	–	–
< 50	> 50	< 50	< 6.30	–	C=CC(=O)Nc1cccc(-c2nccc3cnc(Nc4ccc(N5CCOCC5)cc4)nc23)c1 [Example C012, N-(3-(2-((4-morpholinophenyl)amino)pyrido[3,4-d]pyrimidin-8-yl)phenyl)acrylamide]	–	–	–
< 50	< 50	> 50	–	–	c1ccc(-c2cccc3cnc(Nc4ccc(N5CCOCC5)cc4)nc23)cc1 [Example C004, N-(4-morpholinophenyl)-8-phenylquinazolin-2-amine]	–	–	–
< 50	–	–	–	–	Fc1ccccc1-c1cccc2cnc(Nc3ccc(N4CCOCC4)cc3)nc12 [Example C010, 8-(2-fluorophenyl)-N-(4-morpholinophenyl)quinazolin-2-amine]	–	–	–

Further lines, the compound ahead of its results:

Structure (SMILES)	inhibition at 1 µM (EGFR (ErbB1) L858R) [%]	inhibition at 0.041 µM (BTK) [%]	inhibition at 0.041 µM (JAK2) [%]	pIC50 (A431 cells)	inhibition at 0.041 µM (FGFR1) [%]	pIC50 (H1299 cells)	pIC50 (BTK)	pIC50 (FGFR1)
C=CC(=O)Nc1cccc(-c2cccc3cnc(Nc4ccc(N5CCN(CCF)CC5)cc4)nc23)c1 [Example C053, N-(3-(2-((4-(4-(2-fluoroethyl)piperazin-1-yl)phenyl)amino)quinazolin-8-yl)phenyl)acrylamide]	–	> 50	> 50	6.30 to 7.00	> 50	–	–	–
C=CC(=O)Nc1cccc(-c2cccc3cnc(Nc4ccc(N5CCN(C)CC5)cc4F)nc23)c1 [Example C044, N-(3-(2-((2-fluoro-4-(4-methylpiperazin-1-yl)phenyl)amino)quinazolin-8-yl)phenyl)acrylamide]	–	–	–	< 6.30	< 50	< 6.30	> 7.00	–
C=CC(=O)Nc1cccc(-c2cccc3cnc(Nc4ccc(N5CCN(C)CC5)nc4)nc23)c1 [Example C041, N-(3-(2-((6-(4-methylpiperazin-1-yl)pyridin-3-yl)amino)quinazolin-8-yl)phenyl)acrylamide]	–	–	–	< 6.30	–	< 6.30	> 7.00	> 7.00
C=CC(=O)Nc1cccc(-c2cccc3cnc(Nc4ccc(N5CCN(C)CC5)cc4OC)nc23)c1 [Example C003, N-(3-(2-((2-methoxy-4-(4-methylpiperazin-1-yl)phenyl)amino)quinazolin-8-yl)phenyl)acrylamide]	> 50	–	–	< 6.30	–	< 6.30	–	–
C=CC(=O)Nc1cccc(-c2nccc3c(N)nc(Nc4ccc(N5CCOCC5)cc4)nc23)c1 [Example C005, N-(3-(4-amino-2-((4-morpholinophenyl)amino)pyrido[3,4-d]pyrimidin-8-yl)phenyl)acrylamide]	> 50	> 50	< 50	–	–	–	–	–
C=CC(=O)Nc1cccc(-c2cccc3cnc(Nc4ccc(N5CCN(C)CC5)cc4)nc23)c1 [Example C021, N-(3-(2-((4-(4-methylpiperazin-1-yl)phenyl)amino)quinazolin-8-yl)phenyl)acrylamide]	–	> 50	> 50	6.30 to 7.00	> 50	6.30 to 7.00	> 7.00	> 7.00
C=CC(=O)Nc1cccc(-c2cccc3cnc(Nc4ccc(N5CCN(CCO)CC5)cc4)nc23)c1 [Example C059, N-(3-(2-((4-(4-(2-hydroxyethyl)piperazin-1-yl)phenyl)amino)quinazolin-8-yl)phenyl)acrylamide]	–	–	–	6.30 to 7.00	> 50	< 6.30	> 7.00	> 7.00
